Legend:
mPGES-1 [1] = target: T1, mPGES-1 (Homo sapiens (Human), UniProt O14684); experiment: mPGES-1 enzyme assay (HTRF detection of PGE2); type: biochemical
Method: Microsomes from Rosetta E. coli bacteria expressing recombinant human mPGES-1 can be derived as described below:
Inoculate 5 ml LB with Ampicilin (50 μg/ml) and Chloramphenicol (34 μg/ml) with bacteria from freeze culture. Incubate 8 h at 37° C. with 200 rpm. Thereafter, inoculate 500-1000 ml LB containing Amp and Chloro with the 5 ml on culture and grow to OD640 of 0.8-1.0. Chill the culture to +4° C. before induction. Induce the culture with IPTG at a final concentration of 400 μM. Express the protein at room temp 18-23° C. with 200 rpm shaking over night.
The following steps can be performed on the following day: • 1. Spin down the cells in 250 ml centrifuge flasks for 15 min at 7000 rpm (Beckmann Coulte Avanti J-E centrifuge) • 2. Dissolve the pellet from 250 ml culture in 12.5 ml homogenization buffer • 3. (15 mM Tris-HCL pH8, 1 mM EDTA pH8, […], 2.5 mM GSH, 1 Tablet Protease inhibitor per 50 ml buffer) • 4. […] Add 2.5 ml MgCl2 (100 mM) and DNase 12.5 μl (0.8 mg/ml) and incubate on ice for 30 min • 6. Spin down the bacteria debris and save the supernatant, 7000 rpm for 15 min • 7. Isolate the protein containing membranes in the supernatant by ultracentrifugation 120000×g for 2 hour at 4° C. (Sorvall T880 rotor). • 8. Discard the supernatant and dissolve the pellet in 20 mM Potassium phosphate buffer pH7.4 (KH2PO4 and K2HPO4) buffer by sonication (5×10 s, 30% of a 50 W sonifier) and aliquot the enzyme and store aliquots at −80° C.
Before each experiment is performed an aliquot of the enzyme is thawed and it can then be dissolved in 0.1 M Potassium phosphate buffer pH7.4 (KH2PO4 and K2HPO4) buffer containing 2.5 mM GSH.
The aim of this assay is to determine the affinity of a test compound for the mPGES-1 enzyme.
47 μl of recombinant human mPGES-1 (˜0.5 μg protein/well) containing microsomal suspension in a buffer containing GSH, (2.5 mmol/L L-Glutathione reduced, dissolved in 0.1 mol/L Phosphat Buffer pH 7.4) is dispensed in a 384-well plate and thereafter 1 μl of the test compound(s) is/are added and incubated for 25 minutes at room temperature. The enzyme reaction is started by the addition of 2 ul PGH2 (final conc. 2 μM) dissolved in water-free Diglyme. After 60 seconds the reaction is terminated by addition of a stop solution containing FeCl2 (10 μL 0.074 mol/l FeCl2). The samples are diluted between 1:25 in PBS (Phosphate Buffered Saline). 10 μl of the diluted samples are transferred to 384-well low volume plate. In order to quantify the amount of PGE2 that has been formed, a homogenous time resolved fluorescent (HTRF) detecting of PGE2 has been performed using a commercially available kit from Cisbio according to the manufactures recommendation. […] Briefly, the diluted samples are mixed with 5 μl PGE2-d2 conjungate and 5 μl anti-PGE2 cryptate conjungate. After an incubation period of the plates over night, the fluorescence is measured by the use of an appropriate microplate reader.
The quantification plate contains also wells with different concentrations of PGE2 as calibration curve for the calculation of the PGE2 concentrations from the HTRF ratio values.
From all mPGES enzyme assay the background is subtracted and the IC50 is calculated over a nonlinear regression with conventional software.

mPGES-1 [2] = target: T1, mPGES-1; experiment: A549 cell-based assay (PGE2 formation, IL-1β stimulated, 50% human serum); conditions: A549 cells
Procedure, shortened: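 Human A549 cells (7000 cells/well) in F-12 medium with 50% human serum, with IL-1β stimulation. IC50 from 6-8 point titrations.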

[3] = recombinant human mPGES-1 microsomes, PGH2 2 μM, read-out: mPGES-1 inhibitory effect in the enzyme assay, IC50
[4] = IL-1β 5 ng/ml, read-out: mPGES-1 inhibitory effect in the cell assay, IC50
[5] = Table C comparison of selected benzimidazoles, read-out: Enzym IC50
[6] = Table C comparison of selected benzimidazoles, read-out: Cell IC50

T1 sequence (O14684 whole entry): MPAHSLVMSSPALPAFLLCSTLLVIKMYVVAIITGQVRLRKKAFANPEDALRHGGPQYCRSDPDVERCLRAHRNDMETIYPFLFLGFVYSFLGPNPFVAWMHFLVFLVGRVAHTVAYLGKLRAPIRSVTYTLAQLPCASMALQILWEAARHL

| SMILES | IC50 (mPGES-1 [1]; [3]) | IC50 (mPGES-1 [2]; [4]) | IC50 (mPGES-1 [1]; [5]) | IC50 (mPGES-1 [2]; [6]) |
| --- | --- | --- | --- | --- |
| Cn1c(Nc2c(Cl)ccc(CNC(=O)C(C)(C)C)c2Cl)nc2cc(C(=O)Nc3ccc(F)c(Cl)c3)c(OCC(F)F)cc21 [Example 29] | 4 nM | < 1 nM | – | – |
| CC(C)(C)C(=O)NCc1ccc(Cl)c(Nc2nc3cc(C(=O)N[C@H]4CC[C@H](C(F)(F)F)CC4)c(OCC(F)F)cc3[nH]2)c1Cl [Example 2, N-(trans-4-Trifluoromethyl-cyclohex-1-yl)-2-{2,6-dichloro-3-[(2,2-dimethyl-propionylamino)-methyl]-phenylamino}-6-(2,2-difluoro-ethoxy)-1H-benzimidazole-5-carboxylic acid amide] | 2 nM | 3 nM | – | – |
| Cn1c(Nc2c(Cl)ccc(CNC(=O)C(C)(C)C)c2F)nc2cc(C(=O)NCC(F)(F)F)c(OCC(F)F)cc21 [Example 77] | 2 nM | 12 nM | – | – |
| COCC1(CNC(=O)c2cc3nc(Nc4c(Cl)ccc(CNC(=O)C(C)(C)C)c4Cl)n(C)c3cc2OCC(F)F)CCCC1 [Example 49] | 4 nM | 1 nM | – | – |
| Cn1c(Nc2c(Cl)ccc(CNC(=O)C(C)(C)C)c2Cl)nc2cc(C(=O)Nc3ccc(Br)cc3)c(OCC(F)F)cc21 [Example 5, N-(4-Bromo-phenyl)-2-{2,6-dichloro-3-[(2,2-dimethyl-propionylamino)-methyl]-phenylamino}-6-(2,2-difluoro-ethoxy)-1-methyl-1H-benzimidazole-5-carboxylic acid amide] | 2 nM | < 1 nM | – | – |
| Cn1c(Nc2cc(CNC(=O)C(C)(C)C)ccc2Cl)nc2cc(C(=O)N[C@H]3CC[C@H](C(F)(F)F)CC3)c(OCC(F)F)cc21 [[drawing 47] of PCT/EP2010/052799, reference compound] | – | – | 3 nM | 17 nM |
| Cn1c(Nc2c(Cl)ccc(CNC(=O)C(C)(C)C)c2Cl)nc2cc(C(=O)NCC3CC3(Cl)Cl)c(OCC(F)F)cc21 (stereo not drawn) [Example 44] | 3 nM | 1 nM | – | – |
| Cn1c(Nc2c(Cl)ccc(CNC(=O)C(C)(C)C)c2Cl)nc2cc(C(=O)Nc3ccc4c(c3)CCC4)c(OCC(F)F)cc21 [Example 59] | 4 nM | < 1 nM | – | – |
| Cn1c(Nc2c(Cl)ccc(CNC(=O)C(C)(C)C)c2F)nc2cc(C(=O)N[C@H]3CC[C@H](C(F)(F)F)CC3)c(OCC(F)F)cc21 [Example 76] | 3 nM | 2 nM | – | – |
| Cn1c(Nc2c(Cl)ccc(CNC(=O)C(C)(C)C)c2Cl)nc2cc(C(=O)N[C@H]3CC[C@H](C(F)(F)F)CC3)c(OCC(F)F)cc21 [Example 1, N-(trans-4-Trifluoromethyl-cyclohex-1-yl)-2-{2,6-dichloro-3-[(2,2-dimethyl-propionylamino)-methyl]-phenylamino}-6-(2,2-difluoro-ethoxy)-1-methyl-1H-benzimidazole-5-carboxylic acid amide] | 2 nM | < 1 nM | – | – |
| Cn1c(Nc2c(Cl)ccc(CNC(=O)C(C)(C)C)c2Cl)nc2cc(C(=O)NC3CCC(F)(F)CC3)c(OCC(F)F)cc21 [Example 64] | 2 nM | < 1 nM | – | – |
| Cn1c(Nc2c(Cl)ccc(CNC(=O)C(C)(C)C)c2Cl)nc2cc(C(=O)NCC3CC3)c(OCC(F)F)cc21 [drawing 48] | – | – | 4 nM | 1 nM |
| Cn1c(Nc2c(Cl)ccc(CNC(=O)OC(C)(C)C)c2Cl)nc2cc(C(=O)NCC(F)(F)F)c(OCC(F)F)cc21 [Example 16] | 5 nM | 106 nM | – | – |
| Cn1c(Nc2c(Cl)ccc(CNC(=O)C(C)(C)C)c2Cl)nc2cc(C(=O)Nc3cccc(Cl)c3F)c(OCC(F)F)cc21 [Example 73] | 2 nM | 1 nM | – | – |
| Cn1c(Nc2c(Cl)ccc(CNC(=O)C(C)(C)C)c2Cl)nc2cc(C(=O)Nc3ccc(F)c(F)c3)c(OCC(F)F)cc21 [Example 74] | 9 nM | 1 nM | – | – |
| Cc1cc(Cl)cnc1NC(=O)c1cc2nc(Nc3c(Cl)ccc(CNC(=O)C(C)(C)C)c3Cl)n(C)c2cc1OCC(F)F [Example 63] | 3 nM | 1 nM | – | – |

The remaining lines, values ahead:

| IC50 (mPGES-1 [1]; [3]) | IC50 (mPGES-1 [2]; [4]) | IC50 (mPGES-1 [1]; [5]) | IC50 (mPGES-1 [2]; [6]) | SMILES |
| --- | --- | --- | --- | --- |
| 4 nM | 1 nM | – | – | Cn1c(Nc2c(Cl)ccc(CNC(=O)C(C)(C)C)c2Cl)nc2cc(C(=O)Nc3nc4ccc(Cl)cc4s3)c(OCC(F)F)cc21 [Example 34] |
| 3 nM | < 1 nM | – | – | Cn1c(Nc2c(Cl)ccc(CNC(=O)C(C)(C)C)c2Cl)nc2cc(C(=O)NCCC3CC3)c(OCC(F)F)cc21 [Example 51] |
| 3 nM | 1 nM | – | – | Cn1c(Nc2c(Cl)ccc(CNC(=O)C(C)(C)C)c2Cl)nc2cc(C(=O)NC3CCC3)c(OCC(F)F)cc21 [Example 32] |
| 4 nM | 1 nM | – | – | Cn1c(Nc2c(Cl)ccc(CNC(=O)C(C)(C)C)c2Cl)nc2cc(C(=O)NCC3CC3)c(OCC(F)F)cc21 [Example 53] |
| 2 nM | < 1 nM | – | – | Cn1c(Nc2c(Cl)ccc(CNC(=O)C(C)(C)C)c2F)nc2cc(C(=O)Nc3ccc(F)c(Cl)c3)c(OCC(F)F)cc21 [Example 75, N-(3-Chloro-4-fluoro-phenyl)-2-{6-chloro-2-fluoro-3-[(2,2-dimethyl-propionylamino)-methyl]-phenylamino}-6-(2,2-difluoroethoxy)-1-methyl-1H-benzimidazole-5-carboxylic acid amide] |
| 2 nM | 11 nM | – | – | Cn1c(Nc2c(F)ccc(CNC(=O)C(C)(C)C)c2F)nc2cc(C(=O)Nc3ccc(F)c(Cl)c3)c(OCC(F)F)cc21 [Example 26] |
| 4 nM | 4 nM | – | – | Cn1c(Nc2c(Cl)ccc(CNC(=O)C(C)(C)C)c2Cl)nc2cc(C(=O)NCC(F)F)c(OCC(F)F)cc21 [Example 43] |
| 4 nM | < 1 nM | – | – | Cn1c(Nc2c(Cl)ccc(CNC(=O)C(C)(C)C)c2Cl)nc2cc(C(=O)NCCc3ccccc3)c(OCC(F)F)cc21 [Example 57] |
| 4 nM | < 1 nM | – | – | Cn1c(Nc2c(Cl)ccc(CNC(=O)C(C)(C)C)c2Cl)nc2cc(C(=O)Nc3ccc(Cl)c(F)c3)c(OCC(F)F)cc21 [Example 45] |
| 4 nM | 124 nM | – | – | Cn1c(Nc2c(F)ccc(CNC(=O)C(C)(C)C)c2F)nc2cc(C(=O)NCC(F)(F)F)c(OCC(F)F)cc21 [Example 27] |
| 4 nM | 6 nM | – | – | Cn1c(Nc2c(Cl)ccc(CNC(=O)C(C)(C)C)c2Cl)nc2cc(C(=O)Nc3ccncc3Cl)c(OCC(F)F)cc21 [Example 65] |
| 1 nM | 5 nM | – | – | Cc1ccc(CNC(=O)C(C)(C)C)c(C)c1Nc1nc2cc(C(=O)N[C@H]3CC[C@H](C(F)(F)F)CC3)c(OCC(F)F)cc2n1C [Example 14, N-(trans-4-Trifluoromethyl-cyclohex-1-yl)-2-{2,6-dimethyl-3-[(2,2-dimethyl-propionylamino)-methyl]-phenylamino}-6-(2,2-difluoroethoxy)-1-methyl-1H-benzimidazole-5-carboxylic acid amide] |
| 4 nM | < 1 nM | – | – | Cn1c(Nc2c(Cl)ccc(CNC(=O)C(C)(C)C)c2Cl)nc2cc(C(=O)Nc3cc(F)cc(Cl)c3)c(OCC(F)F)cc21 [Example 40] |
| 4 nM | 1 nM | – | – | COC(=O)c1ccc(NC(=O)c2cc3nc(Nc4c(Cl)ccc(CNC(=O)C(C)(C)C)c4Cl)n(C)c3cc2OCC(F)F)s1 [Example 50] |
| 3 nM | < 1 nM | – | – | Cc1ccc(Cl)cc1NC(=O)c1cc2nc(Nc3c(Cl)ccc(CNC(=O)C(C)(C)C)c3Cl)n(C)c2cc1OCC(F)F [Example 54] |
| 4 nM | 16 nM | – | – | Cn1c(Nc2c(Cl)ccc(CNC(=O)C(C)(C)C)c2Cl)nc2cc(C(=O)Nc3nc(C(F)(F)F)cs3)c(F)cc21 [Example 70] |
| 4 nM | 79 nM | – | – | Cn1c(Nc2c(F)ccc(CNC(=O)C(C)(C)C)c2F)nc2cc(C(=O)Nc3ccc(Br)cc3)c(F)cc21 [Example 9] |
